Experimental data taken from a melting point compilation (Tetko et al.; mined from patent text by program, amines drawn as free bases though some values may be those of a salt).

Compound | melting point
CCOC(=O)c1cn(-c2nccs2)c2nc(N3C[C@@H](NC)[C@H](OC)C3)ccc2c1=O (relative stereo) | 73 to 76 °C
C=C(Nc1nc(-c2ccccc2)c(-c2nc3ccccc3c(=O)n2-c2ccc(Cl)cc2)s1)c1ccco1 | 270 to 274 °C
CC(C)Cn1c(CNC(=O)OC(C)(C)C)c(-c2ccc(Cl)cc2)c2cc(C(N)=O)ccc2c1=O | 144 to 146 °C
Cc1ccccc1-n1c(CF)nc2ccc([N+](=O)[O-])cc2c1=O | 155 to 158 °C
CCCCNC(=O)Nc1ccc(N(CC)CC)cc1C(=O)NCC1CCN(C(c2ccccc2)c2ccccc2)CC1 | 158 to 160 °C
CCC1(Cl)Cc2cc(OCCCC(=O)O)c(Cl)c(Cl)c2C1=O (configuration not stated) | 123 to 124 °C
COc1cccc2c3c(cnc12)CCCN3c1ccccc1C | 160 to 161 °C
COC(=O)c1ccc2c(c1)SCCCC2NC(=O)OCc1ccccc1 (configuration not stated) | 132 to 134 °C
Cc1ccccc1OCC(O)CN (configuration not stated) | 64 °C
CC(C)(C)OC(=O)N1CCN(c2ccc(Nc3ncc4ccc(N)nc4n3)cc2)CC1 | 219 to 220 °C
NS(=O)(=O)c1cccc2c1SCC=C2 | 214 to 216 °C
CC(C)c1cccc(C(C)C)c1NC(=O)Nc1nc(-c2ccccc2)ns1 | 180 to 183 °C
Cc1ccc(-c2nn(-c3ccc(Br)cc3)c(N)c2C(N)=O)cc1 | 222 to 223 °C
O=c1oc(-c2cccc(S(=O)(=O)C(F)(F)F)c2)nc2ccccc12 | 96 to 102 °C
OC(CCc1cccc(Br)c1)c1cnc2sc3c(n12)CCCCC3 (configuration not stated) | 137 to 141 °C
Cc1ccccc1C(=O)N[C@@H]1CCc2cccc(N3CCN(C)CC3)c2C1 | 179 to 180 °C
C=CC(=O)NC1=NN(c2c(Cl)cc(Cl)cc2Cl)C(=O)C1c1cc[nH]n1 (configuration not stated) | 151 to 154 °C
C#CCOc1ccc(Cc2nnc(Cl)c3ccccc23)cc1 | 129 to 131 °C
CCOc1nn(-c2ccc(C(F)(F)F)cn2)cc1CCOc1ccc(CC(=O)O)cc1 | 142 to 143 °C
CCc1cnc(C)c(C(=O)O)c1 | 218 to 220 °C
Cc1c(C(F)(F)F)noc1NS(=O)(=O)c1cccc2ccccc12 | 154 to 155 °C
CCN(CC)C(=O)c1ccc2cc(C(=O)O)ccc2c1 | 122 to 124 °C
Cc1ccc([N+](=O)[O-])cc1N(C)c1nnn[nH]1 | 201 to 205 °C
O=C1NCCCCC1Br (configuration not stated) | 109 to 111 °C
CCNC(=O)c1cc2c(c(Cl)c1O)CCN(C(=O)OC(C)(C)C)C[C@@H]2c1ccc(O)cc1 | 120 to 125 °C

Compound | melting point
Cc1ccccc1-c1nc(-c2ccc(F)cc2)n[nH]1 | 119 to 121 °C
COc1cc(N)c(Cl)cc1C(=O)NC1CCN(C(C)CC(C(=O)N(C)C)(c2ccccc2)c2ccccc2)CC1O (configuration not stated) | 132 °C
C/C=C/C[C@@H](C)[C@@H](O)[C@H](NC)C(=O)O | 228 to 233 °C
COCCN(c1cccc2cc(-c3nccs3)[nH]c12)S(=O)(=O)c1cccs1 | 113 to 114 °C
O=C1Nc2cc(F)c(F)cc2N2CCN(C(=O)OCc3ccccc3)CC12 (configuration not stated) | 226 to 228 °C
CC(=O)c1ccc(C(C)=O)s1 | 171 to 173 °C
CCOC(=O)c1ccc(-c2nc3ccc(C)cn3c2CO)cc1 | 157 to 159 °C
Clc1ccc2nc(N3CCN(c4ncccc4Cl)CC3)[nH]c2c1 | 214 to 215 °C
COC(=O)c1ccccc1Nc1cccc(C(C)NO)c1C (configuration not stated) | 114 to 116 °C
COC(=O)C1=C(C)NC(C)=C(C(=O)OCCCCCCCCN)C1c1cccc([N+](=O)[O-])c1 (configuration not stated) | 129 to 131 °C
CCC(C(C)=CC(CNC(=O)c1nc(C)[nH]c1C)=NO)[N+](=O)[O-] (configuration not stated) | 140 to 141 °C
CCOC(=O)CNC(=O)CS(=O)(=O)Nc1ccc(F)c(C(F)(F)F)c1 | 145 to 147 °C
COC(=O)Cc1ccccc1S(=O)(=O)NC(=O)Nc1nc(Cl)cc(Cl)n1 | 115 to 118 °C
O=C1C2CCCC1CN(Cc1ccccc1)C2 | 48 to 50.5 °C
Cc1ccc(N=CN(C)SN(C)c2ccccc2)c(C)c1 | 72 to 73.5 °C
N#CCC(=O)Nc1c([N+](=O)[O-])cnn1-c1c(Cl)cc(C(F)(F)F)cc1Cl | 221 to 223 °C
Cc1cc(SCc2ccccc2)ccn1 | 69 to 70 °C
O=C1NC(=O)C(=Cc2ccc(N3CCC4(CC3)OCCO4)c(F)c2)S1 | 159 to 160 °C
NS(=O)(=O)c1cc(C(=O)O)cc(NCc2ccco2)c1Oc1ccccc1 | 219 to 220 °C
CC(=O)Oc1c(C)cc2c(c1C)C(C)CN2C(=O)C(C)C (configuration not stated) | 118 to 120 °C
N#CC1CCN(CCc2ccc(F)cc2)CC1 | 47 to 48 °C
CC(C)(O)c1nnc2ccc(-c3c(-c4ccc(F)cc4F)nc4occn34)nn12 | 258 to 260 °C
O=c1[nH]c(N[N+](=O)[O-])ncc1Cc1ccco1 | 183 to 184 °C
COc1ccc(N)cc1NCC(N)=O | 144 °C
COc1ccc(C(=O)CC2CCCCCCC2=O)cc1 (configuration not stated) | 54 to 56 °C

Now from value to molecule:

melting point | Compound
172 to 173 °C | COCCNc1cc(C)n(COC)c(=O)c1[N+](=O)[O-]
180 to 182 °C | CCn1c2ccccc2c2cc(C(C#N)=C(C#N)c3cc(C(F)(F)F)cc(C(F)(F)F)c3)ccc21
117 to 118 °C | CCOC(=O)NC1=NCC(c2ccc(F)cc2)N1C (configuration not stated)
222 to 224 °C | CCN1c2ncccc2C(=O)Nc2c(C)cc(NCCCO)nc21
77 to 79 °C | C=CCc1cc(OC)c(OC)cc1CC(C#N)=COC
> 300 °C | O=c1[nH]c2cc(F)c(F)cc2n2ccnc12
166 to 168 °C | COc1ccc(S(=O)(=O)N2CCc3cccc(-c4ccccc4)c32)cc1
171 to 174 °C | C[C@H](NC(=O)c1c[nH]c2ncc(-c3ccc(C(=O)NCc4cccc(C#N)c4)s3)nc12)C(C)(C)C
38 to 40 °C | C=CCSc1ccc(OCCO)nn1
146 °C | COCCC(=O)N[C@H]1CC[C@H](CCN2CCN(c3nccc4ccoc34)CC2)CC1
69 to 70 °C | COC(=O)[C@H](CCCC(OC)OC)N1C(=O)c2ccccc2C1=O
148 to 150 °C | CC(CNc1ccc(Cl)cc1)COc1ccc(C(=O)O)cc1 (configuration not stated)
298 to 300 °C | Oc1nnc(O)c2c1CCCC2
102 to 103 °C | COc1ccc2c(c1)NC(=O)C(CCCBr)O2 (configuration not stated)
67 to 69 °C | COC(=O)C(C(C)C)N(C)S(=O)(=O)c1ccc(-c2ccc(NC(=O)c3cc4ccccc4o3)cc2)cc1 (configuration not stated)
202 to 204 °C | COC(=O)c1ccc(OCCCOc2c(C)c(C)c(C(=O)Oc3c(C)c(C)c(C(N)=O)c(OC)c3C)c(OC)c2C)cc1
116 to 118 °C | COC(=O)C1(Cl)C[C@H](OC(C)=O)[C@@H](NC(C)=O)[C@H]([C@H](OC(C)=O)[C@@H](COC(C)=O)OC(C)=O)O1 (some centres not stated)
132 to 142 °C | CCCCCCCCCCCCCCCCCC(=O)Nc1cccc(C(=O)N(CC(=O)O)CC(=O)O)c1
148 to 150 °C | N[C@@H]1CCc2c(ccc(OCc3ccccc3)c2CO)[C@H]1O (relative stereo)
196 °C | CN(C(=O)OC(C)(C)C)c1cccc(-c2nc(=O)c3ccccc3s2)n1
228 to 230 °C | O=C(O)/C=C/c1ccc(OCc2cccnc2)cc1
88 to 90 °C | CC1CC(=O)c2cc(Cl)c(F)cc2O1 (configuration not stated)
